# The supplement of paper PMC10307832
# How the values were obtained:
# Assay in all cases: relative viability (nuclei count vs DMSO), 5 days (fraction); higher = more cells survive
# NCI-H1915 = test system: NCI-H1915
# Outline: (§1)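 Relative viability divides the nuclei count in treated wells by that in vehicle wells. Lung cancer cell lines were seeded in 1536-well plates, dosed by pin tool the next day, and fixed and stained after 5 days in one step with final 0.05% Triton X-100, 1% formaldehyde and 1 ug/ml Hoechst. Dosing was a single drug or a fixed anchor-drug dose plus five library-drug doses (not always all listed) in √10 steps, and values are medians of duplicate plates imaged at 4×.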
# SW 900 = test system: SW 900
# Outline: as §1
# NCI-H1755 = test system: NCI-H1755
# Outline: as §1
# LCLC-103H = test system: LCLC-103H
# Outline: as §1
# NCI-H661 = test system: NCI-H661
# Outline: as §1
# NCI-H2347 = test system: NCI-H2347
# Outline: as §1
# NCI-H1651 = test system: NCI-H1651
# Outline: as §1
# NCI-H3122 = test system: NCI-H3122
# Outline: as §1
# NCI-H1792 = test system: NCI-H1792
# Outline: as §1
# NCI-H460 = test system: NCI-H460
# Outline: as §1
# PC-14 = test system: PC-14
# Outline: as §1
# LXF-289 = test system: LXF-289
# Outline: as §1
# NCI-H441 = test system: NCI-H441
# Outline: as §1
# SK-MES-1 = test system: SK-MES-1
# Outline: as §1
# RERF-LC-KJ = test system: RERF-LC-KJ
# Outline: as §1
# NCI-H650 = test system: NCI-H650
# Outline: as §1
# NCI-H596 = test system: NCI-H596
# Outline: as §1
# NCI-H520 = test system: NCI-H520
# Outline: as §1
# NCI-H322M = test system: NCI-H322M
# Outline: as §1
# NCI-H2170 = test system: NCI-H2170
# Outline: as §1
# NCI-H1563 = test system: NCI-H1563
# Outline: as §1
# NCI-H1355 = test system: NCI-H1355
# Outline: as §1
smiles,measurement,setting,value
CC1(C)CCC(c2ccc(Cl)cc2)=C(CN2CCN(c3ccc(C(=O)NS(=O)(=O)c4ccc(N[C@H](CCN5CCOCC5)CSc5ccccc5)c(S(=O)(=O)C(F)(F)F)c4)cc3)CC2)C1 [Navitoclax] + Nc1nc2[nH]cc(CCc3ccc(C(=O)N[C@@H](CCC(=O)O)C(=O)O)cc3)c2c(=O)[nH]1 [Pemetrexed] (partner 0.2 µM),relative viability,NCI-H1915; first compound 0.005 µM,0.495
same,relative viability,NCI-H1915; first compound 0.01581 µM,0.504
same,relative viability,NCI-H1915; first compound 0.05 µM,0.571
same,relative viability,NCI-H1915; first compound 0.1581 µM,0.439
same,relative viability,NCI-H1915; first compound 0.5 µM,0.401
same,relative viability,SW 900; first compound 0.005 µM,0.471
same,relative viability,SW 900; first compound 0.01581 µM,0.476
same,relative viability,SW 900; first compound 0.1581 µM,0.452
same,relative viability,SW 900; first compound 0.5 µM,0.441
same,relative viability,NCI-H1755; first compound 0.005 µM,0.371
same,relative viability,NCI-H1755; first compound 0.01581 µM,0.419
same,relative viability,NCI-H1755; first compound 0.05 µM,0.426
same,relative viability,NCI-H1755; first compound 0.1581 µM,0.351
same,relative viability,NCI-H1755; first compound 0.5 µM,0.433
same,relative viability,LCLC-103H; first compound 0.005 µM,0.473
same,relative viability,LCLC-103H; first compound 0.01581 µM,0.425
same,relative viability,LCLC-103H; first compound 0.05 µM,0.401
same,relative viability,LCLC-103H; first compound 0.1581 µM,0.442
same,relative viability,LCLC-103H; first compound 0.5 µM,0.368
same,relative viability,NCI-H661; first compound 0.005 µM,0.936
same,relative viability,NCI-H661; first compound 0.01581 µM,0.958
same,relative viability,NCI-H661; first compound 0.05 µM,0.9
same,relative viability,NCI-H661; first compound 0.1581 µM,0.883
same,relative viability,NCI-H661; first compound 0.5 µM,0.876
same,relative viability,NCI-H2347; first compound 0.005 µM,0.443
same,relative viability,NCI-H2347; first compound 0.01581 µM,0.439
same,relative viability,NCI-H2347; first compound 0.05 µM,0.411
same,relative viability,NCI-H2347; first compound 0.1581 µM,0.427
same,relative viability,NCI-H2347; first compound 0.5 µM,0.437
same,relative viability,NCI-H1651; first compound 0.005 µM,0.682
same,relative viability,NCI-H1651; first compound 0.01581 µM,0.552
same,relative viability,NCI-H1651; first compound 0.05 µM,0.503
same,relative viability,NCI-H1651; first compound 0.1581 µM,0.633
same,relative viability,NCI-H1651; first compound 0.5 µM,0.548
same,relative viability,NCI-H3122; first compound 0.005 µM,0.207
same,relative viability,NCI-H3122; first compound 0.01581 µM,0.176
same,relative viability,NCI-H3122; first compound 0.05 µM,0.211
same,relative viability,NCI-H3122; first compound 0.1581 µM,0.183
same,relative viability,NCI-H3122; first compound 0.5 µM,0.209
same,relative viability,NCI-H1792; first compound 0.005 µM,0.917
same,relative viability,NCI-H1792; first compound 0.01581 µM,0.82
same,relative viability,NCI-H1792; first compound 0.1581 µM,0.716
same,relative viability,NCI-H1792; first compound 0.5 µM,0.738
same,relative viability,NCI-H460; first compound 0.005 µM,0.0632
same,relative viability,NCI-H460; first compound 0.01581 µM,0.067
same,relative viability,NCI-H460; first compound 0.05 µM,0.0532
same,relative viability,NCI-H460; first compound 0.1581 µM,0.059
same,relative viability,NCI-H460; first compound 0.5 µM,0.0583
same,relative viability,PC-14; first compound 0.005 µM,0.133
same,relative viability,PC-14; first compound 0.01581 µM,0.118
same,relative viability,PC-14; first compound 0.05 µM,0.136
same,relative viability,PC-14; first compound 0.1581 µM,0.108
same,relative viability,PC-14; first compound 0.5 µM,0.105
same,relative viability,LXF-289; first compound 0.005 µM,0.85
same,relative viability,LXF-289; first compound 0.01581 µM,0.914
same,relative viability,LXF-289; first compound 0.05 µM,0.865
same,relative viability,LXF-289; first compound 0.1581 µM,0.926
same,relative viability,LXF-289; first compound 0.5 µM,0.852
same,relative viability,NCI-H441; first compound 0.005 µM,0.238
same,relative viability,NCI-H441; first compound 0.01581 µM,0.24
same,relative viability,NCI-H441; first compound 0.05 µM,0.258
same,relative viability,NCI-H441; first compound 0.1581 µM,0.232
same,relative viability,NCI-H441; first compound 0.5 µM,0.296
same,relative viability,SK-MES-1; first compound 0.005 µM,0.913
same,relative viability,SK-MES-1; first compound 0.01581 µM,1.05
same,relative viability,SK-MES-1; first compound 0.05 µM,1.03
same,relative viability,SK-MES-1; first compound 0.1581 µM,0.884
same,relative viability,SK-MES-1; first compound 0.5 µM,0.927
same,relative viability,RERF-LC-KJ; first compound 0.005 µM,0.476
same,relative viability,RERF-LC-KJ; first compound 0.01581 µM,0.38
same,relative viability,RERF-LC-KJ; first compound 0.05 µM,0.45
same,relative viability,RERF-LC-KJ; first compound 0.1581 µM,0.484
same,relative viability,RERF-LC-KJ; first compound 0.5 µM,0.496
same,relative viability,NCI-H650; first compound 0.005 µM,0.9
same,relative viability,NCI-H650; first compound 0.01581 µM,1.05
same,relative viability,NCI-H650; first compound 0.05 µM,0.908
same,relative viability,NCI-H650; first compound 0.1581 µM,0.95
same,relative viability,NCI-H650; first compound 0.5 µM,0.999
same,relative viability,NCI-H596; first compound 0.005 µM,0.418
same,relative viability,NCI-H596; first compound 0.01581 µM,0.459
same,relative viability,NCI-H596; first compound 0.05 µM,0.5
same,relative viability,NCI-H596; first compound 0.1581 µM,0.439
same,relative viability,NCI-H596; first compound 0.5 µM,0.39
same,relative viability,NCI-H520; first compound 0.005 µM,0.713
same,relative viability,NCI-H520; first compound 0.01581 µM,0.743
same,relative viability,NCI-H520; first compound 0.05 µM,0.699
same,relative viability,NCI-H520; first compound 0.1581 µM,0.571
same,relative viability,NCI-H520; first compound 0.5 µM,0.681
same,relative viability,NCI-H322M; first compound 0.005 µM,0.661
same,relative viability,NCI-H322M; first compound 0.01581 µM,0.651
same,relative viability,NCI-H322M; first compound 0.05 µM,0.65
same,relative viability,NCI-H322M; first compound 0.1581 µM,0.651
same,relative viability,NCI-H322M; first compound 0.5 µM,0.649
same,relative viability,NCI-H2170; first compound 0.005 µM,0.292
same,relative viability,NCI-H2170; first compound 0.01581 µM,0.272
same,relative viability,NCI-H2170; first compound 0.05 µM,0.273
same,relative viability,NCI-H2170; first compound 0.1581 µM,0.266
same,relative viability,NCI-H2170; first compound 0.5 µM,0.254
same,relative viability,NCI-H1563; first compound 0.005 µM,0.656
same,relative viability,NCI-H1563; first compound 0.01581 µM,0.739
same,relative viability,NCI-H1563; first compound 0.05 µM,0.608
same,relative viability,NCI-H1563; first compound 0.1581 µM,0.805
same,relative viability,NCI-H1563; first compound 0.5 µM,0.861
same,relative viability,NCI-H1355; first compound 0.005 µM,0.998
same,relative viability,NCI-H1355; first compound 0.01581 µM,1.05
same,relative viability,NCI-H1355; first compound 0.05 µM,1.11
same,relative viability,NCI-H1355; first compound 0.1581 µM,1.03
same,relative viability,NCI-H1355; first compound 0.5 µM,1.07
